We go through 71 compounds from ChEMBL document CHEMBL3507680, “University of Dundee, Gates Library screen for HepG2 cell viability”.

This data set can be described thus: Human HepG2 cell viability assay in 384 well format. It counts as toxicity, cell-based. Also noted: dose 125 nL, time 70.5 hour; concentration not given beside the values. Particulars: HepG2 cells, read-out: Inhibition.
`Nc1nc2c(c(NCc3cnc4c(c3)CCC4)n1)CCNC2`: the cytotoxicity at 70.5 h is -10.4%.

Turning to `CN1CCCC(c2nc3c([nH]2)CC(C)(C)CNC3=O)C1` (stereo unspecified), the cytotoxicity at 70.5 h stood at 13.5%.

Take `CNc1ccnc(N2C[C@@H](C)[C@](O)(C3CCC3)C2)n1`: the cytotoxicity at 70.5 h worked out at 26%.

Take `Cc1cc(-c2cc(C3CCOC3)c(C#N)c(N)n2)ccc1Cl` (stereo unspecified): the cytotoxicity at 70.5 h was -10.8%.

For `Cc1nnnn1CCC(=O)N1CCC2(CCC(=O)N(CC3CC3)C2)CC1`, the cytotoxicity at 70.5 h is -8.64%.

On to `CCc1oc(C(=O)NC(C)c2ncn[nH]2)cc1CN1CCCC1` (stereo unspecified), for which the cytotoxicity at 70.5 h was -10.5%.

Turning to `COc1ccc(F)c(CN2CCCC(O)(CNC3CCCCC3)C2=O)c1` (stereo unspecified), the cytotoxicity at 70.5 h was -2.81%.

Take `Cn1cnnc1CCC(=O)N1CCCC(OCc2cccnc2)C1` (stereo unspecified): the cytotoxicity at 70.5 h was -0.989%.

On to `CC(C)OCCCNC(=O)C1CCC(=O)N(C2CCCC2)C1` (stereo unspecified), for which the cytotoxicity at 70.5 h was 17.3%.

As to `O=C1OCCN1CCNC(=O)C1(N2CCCCC2)Cc2ccccc2C1`, the cytotoxicity at 70.5 h is -7.56%.

`CCc1cc(N(C)CCC(O)c2ccccc2)n2nccc2n1` (stereo unspecified): the cytotoxicity at 70.5 h was determined as 30.6%.

For the compound `CCCn1ncc(C(=O)N(Cc2cccnc2)C[C@@H]2CCC(=O)N2)c1C`, the cytotoxicity at 70.5 h was -5.8%.

Take `CC(C)Cc1cc(C(=O)NC(C)(C)CN2CCCCCC2)on1`: the cytotoxicity at 70.5 h was -4.52%.

Regarding `COc1cccc2c1OCC(C(=O)N1CCN(C3CCSCC3)CC1)C2` (stereo unspecified), the cytotoxicity at 70.5 h is -7.23%.

As for `CC(=O)c1ccc(CN2CCCC23CCN(c2ccccn2)CC3)cc1`, the cytotoxicity at 70.5 h was -25.1%.

For `CC(C)(O)CCc1ccc(C(=O)NCC2CCCOC2)cc1` (stereo unspecified), the cytotoxicity at 70.5 h was -2.37%.

Regarding `CN1CCN(c2cnn(Cc3ccc(S(C)(=O)=O)cc3)c(=O)c2)CC1`, the cytotoxicity at 70.5 h was -2.57%.

Regarding `CCn1cc(CN2CCCC(COc3ccccc3F)C2)cn1` (stereo unspecified), the cytotoxicity at 70.5 h came out at 10.5%.

Take `O=C(N[C@H]1COC[C@@H]1N1CCCC1)c1c[nH]nc1C1CCCCC1`: the cytotoxicity at 70.5 h is -4.22%.

Regarding `COc1ccc(F)cc1CN1CCC(O)(CN2CCCCC2)C1` (stereo unspecified), the cytotoxicity at 70.5 h was -6.56%.

On to `CCOc1ccc(C(=O)CCC(=O)N(C)Cc2snnc2C)cc1C`, for which the cytotoxicity at 70.5 h was -7.49%.

With `CC(C)c1nc(C(=O)N2CCCC(N)CC2)cs1` (stereo unspecified), the cytotoxicity at 70.5 h stood at 25.2%.

`CC(c1cncs1)N(C)Cc1ccc(CCC(C)(C)O)cc1` (stereo unspecified): the cytotoxicity at 70.5 h was -5.33%.

With `CCc1cc(CN(C)C(=O)CN2CC(c3ccccc3)CC2=O)on1` (stereo unspecified), the cytotoxicity at 70.5 h was determined as 3.32%.

As for `O=C(CSCC1CC1)N1CCCC(c2nccn2Cc2ccccn2)C1` (stereo unspecified), the cytotoxicity at 70.5 h was 0.457%.

For `CCN(Cc1ccncc1)C(=O)C(C)n1ccnc1C(C)C` (stereo unspecified), the cytotoxicity at 70.5 h is -11.1%.

Regarding `COCCC1(CO)CCCN(Cc2ccncc2)C1` (stereo unspecified), the cytotoxicity at 70.5 h was -3.98%.

`CCN(Cc1ccncc1)c1cc(C2CCCNC2)nc(C)n1` (stereo unspecified): the cytotoxicity at 70.5 h was -7.35%.

Take `COCCN(C)C[C@@H]1CN(C(=O)NC2CCCCC2)C[C@@H]1CO`: the cytotoxicity at 70.5 h is -8.61%.

As to `Cc1cc(C(=O)N2CCNC(c3ccccc3)C2)c2ccc(F)cc2n1` (stereo unspecified), the cytotoxicity at 70.5 h is -4.04%.

For `CC(C)n1cnnc1CN(C)CC1CCOC1` (stereo unspecified), the cytotoxicity at 70.5 h was -11.8%.

In the case of `O=C1OCCN1Cc1ccc(C(F)(F)F)cc1F`, the cytotoxicity at 70.5 h is -6.21%.

In the case of `CN(Cc1noc2c1CCCC2)C(=O)C1Cc2ccccc2CN1C` (stereo unspecified), the cytotoxicity at 70.5 h was -6.59%.

Turning to `Cc1ccccc1C1CCN(CCn2cc(-c3nccn3C)nn2)C1` (stereo unspecified), the cytotoxicity at 70.5 h came to 2.36%.

Take `Cc1nc(NC(=O)N(C)Cc2ccoc2)nn1C`: the cytotoxicity at 70.5 h was -4.45%.

Turning to `OC1COCCN(Cc2cccc(N3CCOCC3)c2)C1` (stereo unspecified), the cytotoxicity at 70.5 h was -5.01%.

As to `CCOCCn1c(=O)[nH]c2cc(C(=O)N(C)Cc3cc(C)[nH]n3)ccc21`, the cytotoxicity at 70.5 h was -6.23%.

Consider `OCc1ccc(CN2CCC(n3cc(C4CCCCC4)nn3)CC2)o1`, for which the cytotoxicity at 70.5 h is -7.14%.

For the compound `O=C1CC[C@@H](C(=O)N2CCC(Cn3cc(C4CCCCC4)nn3)CC2)N1`, the cytotoxicity at 70.5 h is -1.59%.

Regarding `CC(=O)NCCC1CCN(c2nc(C(C)(C)C)nc3c2cnn3C)CC1`, the cytotoxicity at 70.5 h was -1.1%.

Regarding `COc1ccc(F)c(F)c1C(=O)N1C[C@@H](CN(C)CCO)[C@@H](CO)C1`, the cytotoxicity at 70.5 h was 17%.

In the case of `OCCc1ncnn1Cc1cccc(Cl)c1`, the cytotoxicity at 70.5 h came out at 44.4%.

For `O=C(NCCN1CCCC(CO)C1)c1ccc2scnc2c1` (stereo unspecified), the cytotoxicity at 70.5 h is -13.1%.

As for `O=C(CCC1CCN(C2CSCCSC2)CC1)NCC1CCCO1` (stereo unspecified), the cytotoxicity at 70.5 h was -7.42%.

Regarding `COc1ccccc1[C@@H]1CN(Cc2cnn(C)c2C)C[C@H]1C(=O)O`, the cytotoxicity at 70.5 h came to 7.39%.

Take `Cc1nc(CN(C)C)cc(N2CCCC(COc3ccc(F)cc3)C2)n1` (stereo unspecified): the cytotoxicity at 70.5 h was -5.18%.

Consider `CCC(C(=O)NC(C)(C)C)n1ccc2ncccc2c1=O` (stereo unspecified), for which the cytotoxicity at 70.5 h was -17.5%.

`COCc1nnc(C(=O)N(C)Cc2ccc(OC)cc2)o1`: the cytotoxicity at 70.5 h was -0.9%.

In the case of `Cc1cnn(CCC(=O)N2CCC3(CCC(=O)N(CC4CC4)C3)CC2)c1`, the cytotoxicity at 70.5 h was -6.95%.

Consider `CN(CCCc1cnn(C)c1)Cc1cc2n(n1)CCNC2`, for which the cytotoxicity at 70.5 h was -4.75%.

For `CC(c1cccnc1)N(C)Cc1cc2cc3c(cc2[nH]c1=O)OCO3` (stereo unspecified), the cytotoxicity at 70.5 h turned out to be 2.59%.

Regarding `COc1cccn(CC(=O)N2CCC3(CCNCC3)C2)c1=O`, the cytotoxicity at 70.5 h was -13.1%.

With `Cc1cc2[nH]c(CN3CCOC(Cc4ccccc4)C3)cc(=O)n2n1` (stereo unspecified), the cytotoxicity at 70.5 h was determined as 18.7%.

As to `COCCCN1CC2(CCCN(CCn3cc(Cl)cn3)C2)CCC1=O` (stereo unspecified), the cytotoxicity at 70.5 h was -21.9%.

For `Cn1ccnc1C(=O)N1CCCC1c1ccc(C(=O)N2CCOCC2)s1` (stereo unspecified), the cytotoxicity at 70.5 h was -2.53%.

In the case of `Cc1c[nH]c(CN2CCOC(c3ccc(Cl)cc3)C2)c(C)c1=O` (stereo unspecified), the cytotoxicity at 70.5 h is -4.57%.

Turning to `CCCc1cncnc1N1CCC2(CCC(=O)N(C3CCCC3)C2)CC1`, the cytotoxicity at 70.5 h is -12.7%.

Consider `CN(c1ncccc1CNC(=O)c1csnn1)C1CCCCC1`, for which the cytotoxicity at 70.5 h came out at 26.5%.

With `CN(Cc1ccccc1CN1CCCC1)C(=O)c1c[nH]c(=O)[nH]1`, the cytotoxicity at 70.5 h is -10.8%.

Turning to `CC1(C(=O)NCc2cccnc2Oc2ccc(F)cc2F)CCCNC1` (stereo unspecified), the cytotoxicity at 70.5 h is -18.2%.

On to `Cc1c(C2CCOC(C)(C)C2)nc(N)c(C#N)c1-c1ccc(O)cc1` (stereo unspecified), for which the cytotoxicity at 70.5 h turned out to be 11.3%.

For `CNC(=O)[C@@H]1C[C@H](N)CN1S(=O)(=O)c1cc(C)c(Cl)cc1C`, the cytotoxicity at 70.5 h was found to be 1.05%.

On to `O=C(c1c[nH]nc1-c1cccc(F)c1)N1CCNC(c2ccccc2)C1` (stereo unspecified), for which the cytotoxicity at 70.5 h was -9.77%.

On to `COc1cccc(C)c1C(=O)N1CCc2ncnc(NCCO)c2CC1`, for which the cytotoxicity at 70.5 h is -7.07%.

For `COc1ccc(-c2nc3c([nH]2)CCNC3C(=O)O)c2ccccc12` (stereo unspecified), the cytotoxicity at 70.5 h was -7.46%.

As to `CN(CCCOc1ccccc1Cl)C(=O)CN1CCNC1=O`, the cytotoxicity at 70.5 h was -1.34%.

Take `COc1cc(CN(C)C(C)c2ccccn2)cc2c1OCO2` (stereo unspecified): the cytotoxicity at 70.5 h is -13.1%.

Regarding `O=C(NC1CC(=O)N(C2Cc3ccccc3C2)C1)c1cnccn1` (stereo unspecified), the cytotoxicity at 70.5 h was -4.83%.

For `CC(=O)NC1CCN(c2cc(-c3ccccc3)nc3c(C)c(C)nn23)C1` (stereo unspecified), the cytotoxicity at 70.5 h was -2.22%.

Regarding `CCCOC1CCCN(C(=O)c2cc(CN(CC)CC)c(CC)o2)C1` (stereo unspecified), the cytotoxicity at 70.5 h is 17.7%.

Turning to `Cc1ccc(-c2nnc(CCC(=O)NCc3cn(C)nc3C)o2)s1`, the cytotoxicity at 70.5 h was -9.67%.
